The source of these data is PMC10108353, “Design and Pharmacological Characterization of α4β1 Integrin Cyclopeptide Agonists: Computational Investigation of Ligand Determinants for Agonism versus Antagonism” (Journal of Medicinal Chemistry, 2023).

For orientation: IC50 means the concentration at which inhibition is half-maximal. Read a high IC50 as lower potency.

Like-named read-outs stand apart in the source and are kept apart here. Starred links: 1 amine or outer side, 2 acyl side, 3 side chain; linkers in the order of their positions; H or OH if unused. Positions of bridges follow the written chain, without caps; N, C: chain ends. Non-standard residues stand in square brackets, D forms with d. Residues, ends and D or L forms follow the SMILES beside them. Groups on a side chain read outwards from the residue. *: point of attachment. dPhe(4-NH2) = Nc1ccc(C[C@@H](N)C(=O)O)cc1; Phe(4-NH2) = Nc1ccc(C[C@H](N)C(=O)O)cc1; NH(2-Me-phenyl) = Cc1ccccc1N*; Phg = N[C@H](C(=O)O)c1ccccc1; d(β3hA) = C[C@@H](N)CC(=O)O; CO = O=C([*:1])[*:2]; NHPr = CCCN*

In data set [1] the test system is ERK1/2 phosphorylation mediated by α4β1 integrin. Put plainly: ERK1/2 phosphorylation in Jurkat E6.1 cells (Western blot). It is filed as cell-based. The following applies: compound 10^–7 to 10^–9 M, no FN, vs vehicle. The procedure:
Intracellular signaling generated by the interaction of ECM components with α4β1 integrin produces an increase in the phosphorylation of cytoplasmatic second messengers such as ERK1/2 that contribute to α4 integrin-mediated cell functions.
Western blot analysis was performed as previously described, with the following modifications. […] On the other hand, after 1 h incubation with integrin antagonists, the cells were then seeded on FN (10 μg/mL) coated plates for 1 h. Integrin agonists were not incubated with FN. At the end of the incubation time, Jurkat E6.1 cells were lysed on ice using a mammalian protein extraction reagent (M-PER; Pierce, Rockford, IL) supplemented with a phosphatase inhibitor cocktail. Protein extracts were quantified using a BCA protein assay kit (Pierce), separated by 12% SDS-PAGE gel, transferred onto nitrocellulose membranes, and immunoblotted with anti-phospho-ERK1/2 (1:1000) (Cell Signaling Technology, Danvers, MA) or anti-total ERK1/2 antibodies (1:2500) (Cell Signaling Technology). Protocols for digital image acquisition and analysis have been previously described.[73] Densitometric analysis of the bands is reported (mean ± SD; n = 3); the amount of phosphorylated ERK1/2 (pERK1/2) is normalized to that of total ERK1/2 (totERK1/2). Experiments were replicated independently at least three times. Statistical analyses were performed using one-way ANOVA and the post hoc Newman–Keuls test.
A general note: Immunoblotting shows a protein as a band on a membrane.

For data set [2], the target named is T1, α4β1 integrin (Homo sapiens, UniProt P05556+P13612). Put plainly: Jurkat E6.1 cell adhesion to VCAM-1. The conditions noted are these: agonist = adhesion index >1, antagonist = adhesion index <1.
Protocol: (§1) Cells were seeded in 96-well plates coated with the specific natural human recombinant ligands (Table 1) and allowed to adhere in the presence of increasing concentrations (10^–10 to 10^–4 M) of the synthesized CPPs before the determination of the number of adherent cells (as described in Experimental Section).
(§2) For adhesion assays on Jurkat E6.1, RPMI8866, or HL60 cells, black 96-well plates were coated overnight at 4 °C with VCAM-1 or ICAM-1 or MAdCAM-1 (5 μg/mL) or Fg (10 μg/mL). The cells were counted, stained with CellTracker green CMFDA (12.5 μM, 30 min at 37 °C, Life Technologies), and after three washes, were preincubated with increasing concentrations of new CPP (10^–10 to 10^–4 M) or with the vehicle (methanol) for 30 min at 37 °C. Then cells were plated (500 000/well) on coated wells and incubated for 30 min at 37 °C. After three washes, adhered cells were lysed with 0.5% Triton X-100 in PBS (30 min at 4 °C) and fluorescence was measured (Ex485 nm/Em535 nm) in an EnSpire Multimode Plate Reader (PerkinElmer, Waltham, MA). For adhesion assays mediated by α5β1 integrin, 96-well plates were coated by passive adsorption with FN (10 μg/mL) overnight at 4 °C. K562 cells were counted and preincubated with various concentrations of the peptides or with the vehicle (methanol) for 30 min at RT. Afterward, the cells were plated (50 000 cells/well) and incubated at RT for 1 h. The wells were then washed with 1% BSA in PBS (phosphate-buffered saline) to take off nonadherent cells, and 50 μL of hexosaminidase substrate was added; after addition of 100 μL of stopping solution, the plates were read at 405 nm. In both types of adhesion assay, the number of adherent cells was determined by comparison with a standard curve made in the same plate. Experiments were carried out in quadruplicate and repeated at least three times.
(§3) Jurkat E6.1 (expressing α4β1 and αLβ2 integrin), K562 (expressing α5β1 integrin) and HL60 (expressing αMβ2 integrin) cell lines were purchased from ATCC (Rockville, MD, USA); these cells were routinely cultured in RPMI-1640 (Life Technologies) supplemented with glutamine and 10% FBS.
(§4) Cells were grown at 37 °C under 5% CO2 humidified atmosphere.
The target in data set [3] is T1, α4β1 integrin. Put plainly: Jurkat E6.1 cell adhesion to FN. The following applies: for agonist or antagonist behaviour, FN/Jurkat E6.1 α4β1: agonist = adhesion index >1, antagonist = adhesion index <1.
Protocol: as §1, §2, §3, §4
The conditions of data set [4]: amide bond, 16-membered ring, HBTU/HOBt/DIPEA, DMF, 25.0 °C.

T1 sequence (P13612 34-1032): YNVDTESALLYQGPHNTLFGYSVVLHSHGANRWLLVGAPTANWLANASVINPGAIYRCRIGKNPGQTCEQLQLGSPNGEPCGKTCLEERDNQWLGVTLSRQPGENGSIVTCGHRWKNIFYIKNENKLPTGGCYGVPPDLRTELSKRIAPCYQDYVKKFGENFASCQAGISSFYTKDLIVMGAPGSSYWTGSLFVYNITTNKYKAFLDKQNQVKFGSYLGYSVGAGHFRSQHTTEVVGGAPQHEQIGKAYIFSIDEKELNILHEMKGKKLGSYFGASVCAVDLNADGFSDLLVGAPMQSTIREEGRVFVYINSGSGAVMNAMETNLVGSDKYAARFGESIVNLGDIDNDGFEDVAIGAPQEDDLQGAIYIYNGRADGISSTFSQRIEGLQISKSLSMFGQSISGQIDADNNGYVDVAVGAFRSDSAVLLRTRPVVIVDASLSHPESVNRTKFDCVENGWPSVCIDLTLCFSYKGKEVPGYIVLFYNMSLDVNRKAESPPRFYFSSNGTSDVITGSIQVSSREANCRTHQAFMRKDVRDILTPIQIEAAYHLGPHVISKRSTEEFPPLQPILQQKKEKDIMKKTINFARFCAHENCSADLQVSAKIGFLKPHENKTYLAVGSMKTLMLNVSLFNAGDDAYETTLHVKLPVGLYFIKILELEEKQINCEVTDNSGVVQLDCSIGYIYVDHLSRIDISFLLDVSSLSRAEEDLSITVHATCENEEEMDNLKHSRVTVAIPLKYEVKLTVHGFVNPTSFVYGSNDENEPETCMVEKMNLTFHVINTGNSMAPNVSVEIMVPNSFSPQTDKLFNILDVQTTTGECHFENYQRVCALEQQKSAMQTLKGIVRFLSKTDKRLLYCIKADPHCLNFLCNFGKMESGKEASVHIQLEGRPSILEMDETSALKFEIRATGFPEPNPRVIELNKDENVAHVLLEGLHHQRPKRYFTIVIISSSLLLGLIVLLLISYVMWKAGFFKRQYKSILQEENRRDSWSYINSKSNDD
T1 sequence (P05556 21-798): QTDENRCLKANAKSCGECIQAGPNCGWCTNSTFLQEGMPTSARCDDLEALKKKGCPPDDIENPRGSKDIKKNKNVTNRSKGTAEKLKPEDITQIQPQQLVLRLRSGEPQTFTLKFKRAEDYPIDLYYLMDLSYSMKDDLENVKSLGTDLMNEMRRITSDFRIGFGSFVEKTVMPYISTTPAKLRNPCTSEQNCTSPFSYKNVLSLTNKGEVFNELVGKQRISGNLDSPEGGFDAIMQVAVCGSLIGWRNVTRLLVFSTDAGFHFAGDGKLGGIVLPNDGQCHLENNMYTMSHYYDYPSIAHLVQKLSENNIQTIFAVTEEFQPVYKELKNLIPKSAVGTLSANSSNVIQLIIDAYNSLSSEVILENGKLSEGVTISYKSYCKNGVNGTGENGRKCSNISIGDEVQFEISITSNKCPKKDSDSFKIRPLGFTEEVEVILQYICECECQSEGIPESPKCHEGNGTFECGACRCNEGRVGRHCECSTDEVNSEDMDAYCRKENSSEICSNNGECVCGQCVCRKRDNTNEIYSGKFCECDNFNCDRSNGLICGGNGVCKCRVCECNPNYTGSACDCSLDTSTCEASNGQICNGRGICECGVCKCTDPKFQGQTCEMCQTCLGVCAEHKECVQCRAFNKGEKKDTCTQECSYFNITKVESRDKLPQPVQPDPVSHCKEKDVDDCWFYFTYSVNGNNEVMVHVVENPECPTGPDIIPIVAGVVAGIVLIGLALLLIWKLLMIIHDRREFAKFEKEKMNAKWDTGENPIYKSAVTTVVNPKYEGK

For the compound `Cc1ccccc1NC(=O)Nc1ccc(C[C@H]2NC(=O)C[C@H](C(=O)O)NC(=O)[C@H](C(C)C)NC(=O)[C@H](CC(=O)O)NC(=O)[C@H](CC(C)C)NC2=O)cc1` [3d, c[(R)-Phu-Leu-Asp-Val-(R)-isoAsp]] ([dPhe(4-NH2)]([CO-NH(2-Me-phenyl)])LDV[dD]-OH; lactam N-5 (inferred)), the “effect on ERK1/2 phosphorylation, compound administered alone” value in data set [1] was “significant concentration-dependent increase of ERK1/2 phosphorylation”. The “agonist or antagonist behaviour, VCAM-1/Jurkat E6.1 α4β1” value in data set [2] is on record as “agonist”. For the same compound, in data set [3], the “agonist or antagonist behaviour, FN/Jurkat E6.1 α4β1” value was “agonist”.

For `Cc1ccccc1NC(=O)Nc1ccc(C[C@@H]2NC(=O)C[C@@H](C)NC(=O)[C@H](C(C)C)NC(=O)[C@H](CC(=O)O)NC(=O)[C@H](CC(C)C)NC2=O)cc1` [11a, c[(S)-Phu-Leu-Asp-Val-(R)-β^3homoAla]] (cyclo([Phe(4-NH2)]([CO-NH(2-Me-phenyl)])LDV[d(β3hA)])), the IC50 in data set [3] was more than 5 µM.

With `Cc1ccccc1NC(=O)Nc1ccc(C[C@H]2NC(=O)C[C@@H](C(=O)O)NC(=O)[C@H](C(C)C)NC(=O)[C@H](C)NC(=O)[C@H](CC(C)C)NC2=O)cc1` [12c, c[(R)-Phu-Leu-Ala-Val-(S)-isoAsp]] ([dPhe(4-NH2)]([CO-NH(2-Me-phenyl)])LAVD-OH; lactam N-5 (inferred)), the “agonist or antagonist behaviour, FN/Jurkat E6.1 α4β1” value in data set [3] is given as “agonist”.

For the compound `Cc1ccccc1NC(=O)Nc1ccc(C[C@@H]2NC(=O)C[C@@H](C(=O)OCc3ccccc3)NC(=O)[C@H](C(C)C)NC(=O)[C@H](CC(=O)OCc3ccccc3)NC(=O)[C@H](CC(C)C)NC2=O)cc1` [H-Asp(OBn)-Val-isoAsp(OBn)-Phu-Leu-OH?], in data set [4] (from H-Asp(OBn)-Val-isoAsp(OBn)-Phu-Leu-OH?), the ring closure, yield after HPLC worked out at 0%.

`Cc1ccccc1NC(=O)Nc1ccc(C[C@@H]2NC(=O)C[C@@H](C(=O)OCc3ccccc3)NC(=O)[C@H](C(C)C)NC(=O)[C@H](C)NC(=O)[C@H](CC(C)C)NC2=O)cc1` [H-Phu-Leu-Ala-Val-isoAsp(OBn)-OH]: the ring closure, yield after HPLC in data set [4] (from H-Phu-Leu-Ala-Val-isoAsp(OBn)-OH) is 37%.

As to `Cc1ccccc1NC(=O)Nc1ccc(C[C@@H]2NC(=O)C[C@@H](C)NC(=O)[C@H](C(C)C)NC(=O)[C@H](CC(=O)OCc3ccccc3)NC(=O)[C@H](CC(C)C)NC2=O)cc1` [H-Phu-Leu-Asp(OBn)-Val-(R)-β3homoAla-OH], the ring closure, yield after HPLC in data set [4] (from H-Phu-Leu-Asp(OBn)-Val-(R)-β3homoAla-OH) was found to be 50%.

As for `Cc1ccccc1NC(=O)Nc1ccc(C[C@@H]2NC(=O)C[C@H](C(=O)OCc3ccccc3)NC(=O)[C@H](C(C)C)NC(=O)[C@H](CC(=O)OCc3ccccc3)NC(=O)[C@H](CC(C)C)NC2=O)cc1` [H-Phu-Leu-Asp(OBn)-Val-disoAsp(OBn)-OH], the ring closure, yield after HPLC in data set [4] (from H-Phu-Leu-Asp(OBn)-Val-disoAsp(OBn)-OH) came out at 19%.

In the case of `CCCNC(=O)[C@@H]1CC(=O)N[C@@H](Cc2ccc(NC(=O)Nc3ccccc3C)cc2)C(=O)N[C@@H](CC(C)C)C(=O)N[C@@H](CC(=O)OCc2ccccc2)C(=O)N[C@@H](C(C)C)C(=O)N1` [H-Phu-Leu-Asp(OBn)-Val-isoAsp(NHPr)-OH?], in data set [4] (from H-Phu-Leu-Asp(OBn)-Val-isoAsp(NHPr)-OH?), the ring closure, yield after HPLC was 27%.

In data set [4] (from H-Phu-Leu-Asp(OBn)-Val-isoAsp(OBn)-OH), `Cc1ccccc1NC(=O)Nc1ccc(C[C@@H]2NC(=O)C[C@@H](C(=O)OCc3ccccc3)NC(=O)[C@H](C(C)C)NC(=O)[C@H](CC(=O)OCc3ccccc3)NC(=O)[C@H](CC(C)C)NC2=O)cc1` [H-Phu-Leu-Asp(OBn)-Val-isoAsp(OBn)-OH] gave a ring closure, yield after HPLC of 28%.

As to `Cc1ccccc1NC(=O)Nc1ccc(C[C@@H]2NC(=O)C[C@@H](C(=O)OCc3ccccc3)NC(=O)[C@H](C(C)C)NC(=O)[C@H](C)NC(=O)[C@H](Cc3ccccc3)NC2=O)cc1` [H-Phu-Phe-Ala-Val-isoAsp(OBn)-OH], in data set [4] (from H-Phu-Phe-Ala-Val-isoAsp(OBn)-OH), the ring closure, yield after HPLC was determined as 48%.

In turn, `Cc1ccccc1NC(=O)Nc1ccc(C[C@@H]2NC(=O)C[C@@H](C(=O)OCc3ccccc3)NC(=O)[C@H](C(C)C)NC(=O)[C@H](CC(=O)OCc3ccccc3)NC(=O)[C@H](Cc3ccccc3)NC2=O)cc1` [H-Phu-Phe-Asp(OBn)-Val-isoAsp(OBn)-OH] displayed a ring closure, yield after HPLC in data set [4] (from H-Phu-Phe-Asp(OBn)-Val-isoAsp(OBn)-OH) of 25%.

For the compound `Cc1ccccc1NC(=O)Nc1ccc(C[C@H]2NC(=O)C[C@@H](C(=O)OCc3ccccc3)NC(=O)[C@H](C(C)C)NC(=O)[C@H](C)NC(=O)[C@H](CC(C)C)NC2=O)cc1` [H-dPhu-Leu-Ala-Val-isoAsp(OBn)-OH], the ring closure, yield after HPLC in data set [4] (from H-dPhu-Leu-Ala-Val-isoAsp(OBn)-OH) worked out at 15%.

`Cc1ccccc1NC(=O)Nc1ccc(C[C@H]2NC(=O)C[C@@H](C(=O)OCc3ccccc3)NC(=O)[C@H](c3ccccc3)NC(=O)[C@H](CC(=O)OCc3ccccc3)NC(=O)[C@H](CC(C)C)NC2=O)cc1` [H-dPhu-Leu-Asp(OBn)-Phg-isoAsp(OBn)-OH?] had a ring closure, yield after HPLC in data set [4] (from H-dPhu-Leu-Asp(OBn)-Phg-isoAsp(OBn)-OH?) of 43%.

`Cc1ccccc1NC(=O)Nc1ccc(C[C@H]2NC(=O)C[C@@H](C)NC(=O)[C@H](C(C)C)NC(=O)[C@H](CC(=O)OCc3ccccc3)NC(=O)[C@H](CC(C)C)NC2=O)cc1` [H-dPhu-Leu-Asp(OBn)-Val-(R)-β3homoAla-OH] registered a ring closure, yield after HPLC in data set [4] (from H-dPhu-Leu-Asp(OBn)-Val-(R)-β3homoAla-OH) of 33%.

The compound `Cc1ccccc1NC(=O)Nc1ccc(C[C@H]2NC(=O)C[C@H](C(=O)OCc3ccccc3)NC(=O)[C@H](C(C)C)NC(=O)[C@H](CC(=O)OCc3ccccc3)NC(=O)[C@H](CC(C)C)NC2=O)cc1` [H-dPhu-Leu-Asp(OBn)-Val-disoAsp(OBn)-OH] returned a ring closure, yield after HPLC in data set [4] (from H-dPhu-Leu-Asp(OBn)-Val-disoAsp(OBn)-OH) of 34%.

`Cc1ccccc1NC(=O)Nc1ccc(C[C@H]2NC(=O)C[C@@H](C(=O)OCc3ccccc3)NC(=O)[C@H](C(C)C)NC(=O)[C@H](CC(=O)OCc3ccccc3)NC(=O)[C@H](CC(C)C)NC2=O)cc1` [H-dPhu-Leu-Asp(OBn)-Val-isoAsp(OBn)-OH] came in with a ring closure, yield after HPLC in data set [4] (from H-dPhu-Leu-Asp(OBn)-Val-isoAsp(OBn)-OH) of 29%.

`Cc1ccccc1NC(=O)Nc1ccc(C[C@@H]2NC(=O)C[C@@H](C(=O)OCc3ccccc3)NC(=O)[C@H](C(C)C)NC(=O)[C@H](CC(=O)OCc3ccccc3)NC(=O)[C@H](CC(C)C)NC2=O)cc1` [H-isoAsp(OBn)-Phu-Leu-Asp(OBn)-Val-OH] registered a ring closure, yield after HPLC in data set [4] (from H-isoAsp(OBn)-Phu-Leu-Asp(OBn)-Val-OH) of 0%.

`CCCNC(=O)[C@@H]1CC(=O)N[C@@H](Cc2ccc(NC(=O)Nc3ccccc3C)cc2)C(=O)N[C@@H](CC(C)C)C(=O)N[C@@H](CC(=O)O)C(=O)N[C@@H](C(C)C)C(=O)N1` [compound 13, c[(S)-PhU-Leu-Asp-Val-(S)-isoAsp(nPr)]] ([Phe(4-NH2)]([CO-NH(2-Me-phenyl)])LDVD-NHPr; lactam N-5 (inferred)): in data set [3], the IC50 is more than 5 µM and the “agonist or antagonist behaviour, FN/Jurkat E6.1 α4β1” value was “complete loss of activity”.

`Cc1ccccc1NC(=O)Nc1ccc(C[C@@H]2NC(=O)C[C@@H](C(=O)O)NC(=O)[C@H](C(C)C)NC(=O)[C@H](CC(=O)O)NC(=O)[C@H](Cc3ccccc3)NC2=O)cc1` [compound 14, c[(S)-Phu-Phe-Asp-Val-(S)-isoAsp]] ([Phe(4-NH2)]([CO-NH(2-Me-phenyl)])FDVD-OH; lactam N-5): the IC50 in data set [3] is more than 5 µM.

Regarding `Cc1ccccc1NC(=O)Nc1ccc(C[C@H]2NC(=O)C[C@@H](C(=O)O)NC(=O)[C@H](c3ccccc3)NC(=O)[C@H](CC(=O)O)NC(=O)[C@H](CC(C)C)NC2=O)cc1` [compound 16, c[(R)-Phu-Leu-Asp-Phg-(S)-isoAsp]] ([dPhe(4-NH2)]([CO-NH(2-Me-phenyl)])LD[Phg]D-OH; lactam N-5), the IC50 in data set [3] was more than 5 µM.
